Source: the supplement of paper PMC10307832

Key:
Assay in all cases: relative viability (nuclei count vs DMSO), 5 days (fraction); higher = more cells survive
[1] = compound: NS(=O)(=O)OC[C@@H]1C[C@@H](n2ccc3c(N[C@H]4CCc5ccccc54)ncnc32)C[C@@H]1O [MLN4924] + COc1cccc2cc(-c3nc([C@H]4CC[C@H](C(=O)O)CC4)n4ncnc(N)c34)[nH]c12 [OSI-027] (partner 0.5 µM)
How it was run: (§1)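 For relative viability, nuclei counts in treated wells were divided by those in vehicle wells. Lung cancer cell lines had been pin-tool dosed in 1536-well plates the day after seeding and cultured for 5 days, then fixed and stained in one step (final 0.05% Triton X-100, 1% formaldehyde, 1 ug/ml Hoechst) and imaged at 4×. Doses were one drug alone or a fixed anchor-drug dose plus five library-drug doses (not always all listed) in √10 steps, and values are duplicate-plate medians.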

[2] = compound: C1CC(C1)(C(=O)O)C(=O)O.[NH2-].[NH2-].[Pt+2] [Carboplatin] + O=C(CCCCCCC(=O)Nc1ccccc1)NO [Vorinostat] (partner 1 µM)
How it was run: as §1

[3] = compound: NS(=O)(=O)OC[C@@H]1C[C@@H](n2ccc3c(N[C@H]4CCc5ccccc54)ncnc32)C[C@@H]1O [MLN4924] + C[C@@H](Oc1cc(-c2cnn(C3CCNCC3)c2)cnc1N)c1c(Cl)ccc(F)c1Cl [Crizotinib] (partner 1 µM)
How it was run: as §1

Row | Cell Line | relative viability ([1]; first compound 0.04 µM) | relative viability ([1]; first compound 0.1265 µM) | relative viability ([1]; first compound 0.4 µM) | relative viability ([1]; first compound 1.265 µM) | relative viability ([1]; first compound 4 µM) | relative viability ([2]; first compound 0.08 µM) | relative viability ([2]; first compound 0.253 µM) | relative viability ([2]; first compound 0.8 µM) | relative viability ([2]; first compound 2.53 µM) | relative viability ([2]; first compound 8 µM) | relative viability ([3]; first compound 0.04 µM) | relative viability ([3]; first compound 0.1265 µM) | relative viability ([3]; first compound 0.4 µM) | relative viability ([3]; first compound 1.265 µM) | relative viability ([3]; first compound 4 µM)
1 | HCC-366 | 1.02 | 0.895 | 1.08 | 0.396 | 0.0921 | 0.451 | 0.311 | 0.317 | 0.29 | 0.114 | 0.603 | 0.66 | 0.797 | 0.211 | 0.0183
2 | NCI-H1650 | 0.564 | 0.379 | 0.184 | 0.102 | 0.17 | 0.64 | 0.584 | 0.599 | 0.459 | 0.271 | 1.04 | 0.658 | 0.333 | 0.202 | 0.166
3 | COR-L23 | 0.718 | 0.602 | 0.555 | 0.199 | 0.119 | 0.588 | 0.446 | 0.36 | 0.262 | 0.149 | 0.588 | 0.567 | 0.431 | 0.136 | 0.0871
4 | NCI-H647 | 0.598 | 0.472 | 0.475 | 0.0477 | 0.0384 | 0.39 | 0.493 | 0.609 | 0.646 | 0.175 | 0.925 | 0.665 | 0.197 | 0.0313 | 0.0474
5 | LXF-289 | 0.833 | 0.713 | 0.569 | 0.165 | 0.13 | 0.788 | 0.787 | 0.775 | 0.793 | 0.713 | 0.605 | 0.566 | 0.508 | 0.205 | 0.126
6 | NCI-H1703 | – | – | – | – | – | – | – | – | – | – | 0.214 | 0.159 | 0.187 | 0.109 | 0.0907
7 | NCI-H1793 | 0.293 | 0.26 | 0.303 | 0.243 | 0.261 | 0.884 | 0.796 | 0.62 | 0.682 | 0.745 | – | – | – | – | –
8 | NCI-H522 | 0.666 | 0.64 | 0.398 | 0.317 | 0.465 | 0.882 | 0.904 | 0.944 | 0.968 | 0.669 | – | – | – | – | –
9 | LOU-NH91 | 0.754 | 0.857 | 0.609 | 0.411 | 0.385 | 1.03 | 0.937 | 0.949 | 0.894 | 0.734 | 0.706 | 0.743 | 0.652 | 0.489 | 0.398
10 | NCI-H1355 | 0.456 | 0.388 | 0.277 | 0.221 | 0.231 | 0.745 | 0.673 | 0.648 | 0.655 | 0.559 | 1.04 | 1.03 | 0.963 | 0.484 | 0.208
11 | NCI-H441 | 0.596 | 0.613 | 0.258 | 0.139 | 0.193 | 0.865 | 0.835 | 0.588 | 0.785 | 0.369 | 0.866 | 0.693 | 0.361 | 0.158 | 0.169
12 | NCI-H1395 | 0.641 | 0.606 | 0.602 | 0.349 | 0.39 | 1.03 | 0.638 | 0.847 | 0.644 | 0.502 | – | – | – | – | –
